Data on one compound can be found in paper PMC10017027, “Design and Synthesis of Novel HIV-1 NNRTIs with Bicyclic Cores and with Improved Physicochemical Properties” (Journal of Medicinal Chemistry, 2023).

Molecules are shown by their SMILES. Converted amounts (≈) assume the structure as drawn. Where two headings read alike, the source gives them in different places. Some results are limits rather than exact numbers.

Series [1] has as its system HIV-1 HXB2 K103N variant. The series can be described thus: MT-4 antiviral cytopathic effect assay, HXB2-K103N. Format: cell-based.
In series [2] the test system is HIV-1 HXB2. The series can be described thus: MT-4 antiviral cytopathic effect assay, HXB2 wild-type virus. Format: cell-based. As to conditions: Human immunodeficiency virus 1, MT4; HIV-1 HXB2 wild-type, MT-4 cells; read-out: EC50 HXB2.
The nature of series [3]: Solubility assessment, shake-flask method. Format: physicochemical. As to conditions: for solubility: shake-flask. The protocol:
Compound solubility was measured at Analiza (Cleveland, OH) by the standard shake-flask method at pH 1.2 and 7.4 and quantitated by HPLC-UV.

For series [4], the system named is HIV-1 (IIIB strain). Kind of series: MT-4 antiviral cytopathic effect assay, HIV-1 IIIB. It counts as cell-based.
The nature of series [5]: MDCK permeability assay (A to B). It counts as in vitro ADME, Canine. The note with it: dog, MDCK.
The mark [6] stands for this setting: preliminary biological data, in words.

Consider `Cc1cc(C#N)cc(C)c1N1CC(=O)Nc2cnc(Nc3ccc(C#N)cc3)nc21` [Compound 3, 4-(2-((4-Cyanophenyl)amino)-6-oxo-6,7-dihydropteridin-8(5H)-yl)-3,5-dimethylbenzonitrile], for which the EC50 in series [1] (Human immunodeficiency virus 1, HXB2, read-out: EC50 K103N) is 45.2 nM; in series [2], 8.1 nM; in series [4] (Human immunodeficiency virus 1, HXB2 / IIIB, range over HIV-1 IIIB and HXB2, read-out: EC50 against both wild-type viruses), 8.1 to 8.6 nM; in series [4] (Human immunodeficiency virus 1, IIIB, MT4, protects 50% of MT-4 cells against HIV-1-induced cell killing, HIV-1 IIIB, WT, read-out: EC50 MT4) it was 8.6 nM. Further, the “K103N (FC)” value in series [1] (fold change: ratio of potency against HXB2 K103N and parental HXB2) was 5.6; in series [1] (supplement CSV, fold change vs HXB2) it was 5.6. Moreover, the “potency against K103N mutated strain” value in series [1] (setting [6]) is on record as “high potency”. Besides, in series [3] (HCl, pH 1.2, supplement CSV, read-out: HCl sol), the solubility thermodynamic was above 100 µM. Also, the solubility in series [3] (HCl, pH 1.2, read-out: solubility HCl) was above 100 µM; in series [3] (phosphate-buffered saline, pH 7.4, read-out: solubility PBS) it was 2.3 µM (≈ 0.909 µg/mL). Besides, the aqueous solubility result in series [3] (preliminary data, in words) is on record as “significantly improved”. The PBS sol in series [3] (supplement CSV) amounted to 2.3 µM. For the same compound, in series [4] (setting [6]), the “activity against the WT virus” value is recorded as “low nanomolar activity”. Further, the Papp A→B at 120 min in series [5] (supplement CSV) was 4.1 ×10⁻⁶ cm/s; in series [5] (apparent permeability coefficient, A to B, pH 7.4), 4.1 ×10⁻⁶ cm/s.
